Here are results for one molecule from patent publication US12084411B2, “Hinokitiol analogues, methods of preparing and pharmaceutical compositions thereof” (The Board of Trustees of the University of Illinois, priority 2018, dated 2024).

Each structure is given as a SMILES string.

In one data set the test system is normal Caco-2 monolayers. In words: Transepithelial iron transport in normal Caco-2 monolayers. The format is cell-based, Human. The conditions noted are these: same concentration as in deficient system.
Data set [1] in a line: Metal efflux from liposomes using PhenGreen. Format: biochemical. The procedure: Hinokitiol-promoted release of different divalent metals from POPC liposomes was performed by tracking the quenching of PhenGreen (Fisher P14312) similar to previously reported (67, 68). […] In all cases, liposomes were prepared using 5 mM of either FeCl2, MnCl2, CoCl2, NiCl2, ZnCl2, or CuCl2 added to the internal buffer. […] The liposome suspension was diluted to 1 mM of phosphorus. The liposome suspension was transferred to a 96-well plate, and either DMSO or 2 μM hinokitiol (from a 40X stock in DMSO) was added at t=2 min. […] After one hour, the liposomes were lysed with Triton-X and the fluorescence was recorded. […] The DMSO-treated and hinokitiol-treated liposomes had similar fluorescence quenching levels after lysis. […] The t1/2 values were calculated using an asymptotic fit in OriginPro. The t1/2 values indicate the time required to reach half of the maximum metal efflux for each metal.

Data set [2] in a line: Rate of iron (III) reduction. Format: physicochemical. The conditions noted are these: 62.5 mM ascorbate buffer. The procedure:
The rate of iron (III) reduction in the absence or presence of hinokitiol was determined using ferrozine to quantify the concentration of iron (II) similar to previously described (71). […] The absorbance at 562 nm, corresponding to Fe(ferrozine)3, was determined at the indicated time points.

For data set [3], the system named is fet3Δftr1Δ yeast. In words: Sustainability assay. The format is cell-based, Saccharomyces cerevisiae. The conditions noted are these: 10 μM hinokitiol, 10 μM FeCl3. The procedure: Sustainable hinokitiol-promoted growth restoration of fet3Δftr1Δ yeast was performed similar to previously reported (20) by inoculation of hinokitiol-rescued yeast from low iron SD-agar plates containing 10 μM hinokitiol and 10 μM FeCl3 into low iron SD liquid media containing 10 μM hinokitiol and 10 μM FeCl3, then streaking of the yeast suspension (diluted to OD600 of 0.1) onto agar plates. This process was repeated for >100 days. Continued reliance of fet3Δftr1Δ yeast growth on hinokitiol was observed, as removal of hinokitiol from the SD-agar plates led to no fet3Δftr1Δ yeast cell growth.

A further data set has as its system shDMT1 Caco-2 monolayers. In words: Imaging of cytosolic iron with calcein green in Caco-2 monolayers. The conditions noted are these: 25 μM FeCl3, 1 hour. The format is cell-based, Human. The procedure: Temporal live cell imaging of labile iron levels in shDMT1 Caco-2 monolayers was performed after staining of Caco-2 monolayers with calcein green-AM (5 μM) in the apical and basolateral liquid for 30 minutes in pH=7.4 DMEM. […] Final volume administered was 1.5 mL/kg for each mouse, correcting for individual body weight. […] Mice were humanely sacrificed by isoflurane overdose after 6 hours and blood was collected by cardiac puncture. Radioactivity was quantified by gamma counting and calculated as the percentage of gavaged dose (±SEM). Experiments were performed with 4 genotyped-matched mice/day; preliminary analysis determined there were no gender effects on uptake of ^59Fe after intragastric gavage; mixed genders were used in the experiments shown.

Another data set has as its system normal MEL cells. The experiment in a line: Hemoglobinization of normal MEL cells. The format is cell-based, mouse. The conditions noted are these: same concentration as in deficient system. The procedure: (§1) Cells were then incubated at 37° C. for 72 hours unless otherwise noted. […] Hemoglobinized MEL cells were quantified three days after DMSO induction through o-dianisidine staining similar to previously reported (74). Cells were centrifuged three days after induction and rinsed with PBS. […] Cells were then imaged on an AXIO Zoom […] microscope to obtain color images. The number of stained cells were then quantified via ImageJ analysis and compared to the number of total cells in each image. To determine that hinokitiol requires DMSO induction for hemoglobinization, 2% DMSO was not added at the beginning of the experiment before a 72-hour incubation and o-dianisidine staining.

The subject of data set [4] is fet3Δftr1Δ yeast. The experiment in a line: Metal selectivity in yeast (ICP-MS). The format is cell-based, Saccharomyces cerevisiae. The settings on record: 10 μM hinokitiol, 100 μM FeCl3. As for the experimental part: Hinokitiol-mediated changes in intracellular metal levels were determined using growth rescue conditions from FIG. 13H and an adaptation of the Fe uptake study in FIG. 1G. Specifically, wild type and fet3Δftr1Δ yeast were grown in YPD media overnight, rinsed, and incubated in SD media without FeCl3 at 30° C. for 3 hours. Yeast were then resuspended at an OD600=0.50 in SD media (50 mM MES/Tris, pH=7.0) containing 100 μM FeCl3 and either DMSO vehicle or 10 μM hinokitiol. After 2.5 hours of incubation, cells were centrifuged at 5° C., rinsed twice with cold 10 mM EDTA in 50 mM Tris/HCl buffer (pH=6.5), and once with cold metal-free water. Cells were then lyophilized for 48 hours. The lyophilized cells were digested with a 5:1 mixture of HNO3:HCl and then subjected to an automated sequential microwave digestion in a CEM Discover SP-D microwave digester. The resulting clear solution was diluted in metal-free water, and elemental analysis was performed by ICP-MS.

For the next data set, the system named is MEL. The experiment in a line: WST-8 toxicity in MEL cells. The settings on record: MEL cells, three days, 1 μM. Format: cell-based, mouse. For orientation: Tetrazolium assays rely on reduction of a dye to a coloured formazan, in cell work by metabolically active cells.
The nature of data set [5]: WST-8 toxicity in MEL cells. Format: cell-based, mouse. The settings on record: mouse, wild type MEL cells; Wild Type MEL, WST-8 assay after ≥24 hours of incubation.
Method: Determination of small molecule-mediated toxicity in Caco-2, MEL, and/or J774 cells was performed according to manufacturer instructions using a WST-8 kit (Cayman Chemical 10010199) similar to previously reported (76) using a 1000× stock of the indicated small molecule in DMSO to give the indicated final concentration.
Data set [6] is described as follows: Hinokitiol binding selectivity by ICP-MS. The conditions noted are these: for Extracted Metal 1:1 Hino:Metals: 1 mM Hino; for Extracted Metal 1:1 Hino:Metals / Extracted Metal 10:1 Hino:Metals: 1 mM of each metal; for Extracted Metal 10:1 Hino:Metals: 60 mM Hino. As for the experimental part:
The binding selectivity for hinokitiol with multiple divalent metals was determined similar to previously described (32). […] The colored solution was allowed to incubate for 4 hours at room temperature. The solution was diluted in buffer, and extracted (×3) using 1:1 Hexanes:Ethyl Acetate. […] Control experiments were performed similar to those described above but in the absence of hinokitiol. No metal was detected in the organic layer by ICP-MS. Control experiments were also performed similar to those described above but using 60 mM hinokitiol. Metal content after extraction was compared to the initial metal content in the aqueous solution before extraction, and it was determined that the metal:hinokitiol complexes are extracted into the organic layer.

In another data set the test system is TMEM14CΔ MEL cells. In words: Hemoglobinization of TMEM14C-deficient MEL cells. The format is cell-based, mouse. The settings on record: 1 μM. As for the experimental part: as §1
Another data set relates to fet3Δarn1-4Δ yeast. The experiment in a line: Growth rescue of yeast missing all known siderophore transporters on agar plates. Format: cell-based, Saccharomyces cerevisiae. The conditions noted are these: 10 μM hinokitiol, 10 μM FeCl3. The procedure: MES/Tris buffer at pH=7.0 containing 2% agarose gel, 10 μM FeCl3, and 10 μM hinokitiol (from 40X stock in DMSO). […] Yeast were grown overnight in YPD media and diluted to an optical density at 600 nm (OD600) of 1.0 in low iron SD media before 10-fold serial dilution and inoculation of these yeast suspensions (10 μL per dot) onto the low iron SD-agar plates described above containing either DMSO vehicle or hinokitiol (10 μM from 40X DMSO stock).

Method for normal Caco-2 monolayers: Media from differentiated Caco-2 monolayers (P25-50, 21-28 days post seeding) grown on PET inserts in 6-well plates was aspirated, and monolayers were rinsed with PBS. […] The monolayers were then incubated for four hours at 37° C. unless otherwise noted. A 100 μL aliquot of the basolateral fluid was removed, diluted in scintillation cocktail, and radioactivity was determined on a liquid scintillation counter to quantify relative amounts of ^55Fe transport. To determine intracellular ^55Fe, the basolateral and apical media was removed, and the monolayer was rinsed with PBS (×2). The cells were then lysed with 500 μL of 200 mM NaOH with nutator mixing overnight, and radioactivity was determined on a liquid scintillation counter after diluting the cell lysate in scintillation cocktail. All values were normalized to shControl monolayers unless otherwise noted. Absolute iron levels were determined through calibration of ^55Fe radioactivity levels with known standards and average mg of protein per membrane was determined by protein lysis with RIPA buffer containing protease inhibitors and quantified through a BCA kit according to manufacturer instructions.

As usually defined, the EC90 is the point of the concentration-response curve where the effect stands at 90%. Higher therefore signals a need for much substance. For the molecule `CC(C)c1cccc(=O)c(O)c1` [hinokitiol], the “effect on transepithelial iron transport in wild type system” value in the data set on normal Caco-2 monolayers is reported as “negligible effects”. Moreover, in data set [1], the “Cu^II transport rate relative to Fe^II in liposomes” value is recorded as 80 fold. Besides, the “reduction of iron (III) in a reducing environment” value in data set [2] is “slowed”. In addition, the “time over which growth restoration is sustained” value in the data set with fet3Δftr1Δ yeast [3] is on record as greater than 100 days. The “cytosolic labile iron (calcein green)” value in the data set on shDMT1 Caco-2 monolayers is listed as “increased labile iron up to 5 μM”. Besides, the “effect on hemoglobinization in wild type system” value in the data set with normal MEL cells is listed as “negligible effects”. The “intracellular iron levels relative to vehicle-treated controls” value in the data set on fet3Δftr1Δ yeast [4] is “increased”. The “intracellular levels of manganese, cobalt, nickel, zinc, and copper” value with fet3Δftr1Δ yeast [4] is reported as “unchanged”. The observable toxicity result in the data set with MEL was “without observable toxicity”. Besides, in data set [5], the EC90 turned out to be 24 µM. The “Cu^II competitively bound relative to Fe^II” value in data set [6] (1:1 Hino:Metals) was found to be 10 fold. Moreover, the “Extracted Metal 1:1 Hino:Metals” value in data set [6] (Co^II) was 0.001 ± 0.000 µmol; in data set [6] (Cu^II) it was 45.15 ± 6.46 µmol; in [6] (Fe^II) it was 4.80 ± 0.61 µmol; in [6] (Mn^II), 0.0003 ± 0.0001 µmol; in data set [6] (Zn^II), 0.0015 ± 0.0006 µmol. In addition, the “Extracted Metal 10:1 Hino:Metals” value is 41 ± 0.3 µmol in data set [6] (Co^II); 46 ± 0.2 µmol in data set [6] (Cu^II); 46 ± 0.4 µmol in data set [6] (Fe^II); 37 ± 0.8 µmol in data set [6] (Mn^II); 35 ± 0.3 µmol in [6] (Ni^II); 38 ± 0.2 µmol in data set [6] (Zn^II). For the same molecule, the hemoglobinization entry in the data set with TMEM14CΔ MEL cells is recorded as “did not promote hemoglobinization”. For the same molecule, in the data set on fet3Δarn1-4Δ yeast, the “growth restoration of fet3Δarn1-4Δ yeast” value is reported as “restores growth”.
